# In publication PMC11831592, “Repurposing Linezolid in Conjunction with Histone Deacetylase Inhibitor Access in the Realm of Glioblastoma Therapies” (Journal of Medicinal Chemistry, 2025):
# Read-outs that look alike come from different tables or passages of the source.
# Key:
# [1] = Brain distribution study, UPLC of plasma and brain tissue extract; type: in vivo; conditions: mouse, ip, C57BL/6 mice, 360 mg/kg intraperitoneal
# Method: The liquid chromatography was performed on an Acquity H class UPLC system (Waters Corp., Massachusetts, U.S.) equipped with an ACQUITY Premier PDA eλ detector (Waters Corp., Massachusetts, U.S.) with an autosampler temperature of 15 °C. Separation was performed at 25 °C on a Waters Acquity HSS T3 C18 column (2.1 mm × 100 mm, 1.8 μm particle size) with a gradient elution using A: water (containing 2 mM ammonium acetate and 0.1% formic acid) and B: acetonitrile as the mobile phase. The gradient program is as follows: 96% A (initial), 96% A (1 min), 65% A (7 min), 65% A (7.5 min), 96% A (8 min), and 96% A (12 min). The flow rate was set at 0.5 mL/min, and the injection volume was 3 μL. The UV wavelength was adjusted to 254 nm for compound 1 detection.
# Following anesthesia of mice with isoflurane, blood samples were collected via a cardiac puncture. The blood was centrifuged at 2000g for 20 min at 4 °C to obtain plasma. Plasma samples were then mixed with an equal volume of 1 M zinc sulfate heptahydrate solution (cat. no. 221376, Sigma-Aldrich) and allowed to stand for 30 min. Subsequently, the mixture was centrifuged at 12,000g for 30 min at 4 °C, and the supernatant was collected for analysis. Brain tissues were homogenized using a Tenbroeck tissue grinder at a ratio of 5 μL of DMSO per mg of tissue. The homogenates were then centrifuged at 12,000g for 30 min at 4 °C, and the supernatant was collected for analysis.
# Compound 1 was prepared in DMSO at a concentration of 180 mg/mL, and […] at 30 mg/mL. C57BL/6 mice were intraperitoneally injected with compound 1 at 360 mg/kg, TMZ at […], or DMSO at 2 μL/g as the control group. Mice were sacrificed by intraperitoneal injection after 30 min, and plasma as well as brain tissue extracts were collected following the aforementioned procedures.
# [2] = test system: PT#3-R; test: CCK8 cell proliferation assay, PT#3-R; type: cell-based; conditions: Homo sapiens, CCK8, 72 h
# Method: (§1) Cell viability and drug cytotoxicity were determined by a CCK-8 kit (Cell Counting Kit-8, CK04-13, MD, USA) (CCK8, C0005, Target Molecule Corp., MA, USA) reagent. Cells were seeded 2 × 10^3 per well in the 96-well plate for 24 h, followed by treating at different concentrations of compounds for 72 h. Before the experiment, CCK8 was 10-fold diluted with the culture medium and then incubated with cells for 30 min. Finally, the OD was 450 nm absorbance and calculated for cell viability.
# [3] = test system: LN229 GBM cells; test: CCK8 cell proliferation assay, LN229; type: cell-based; conditions: Homo sapiens, LN-229; LN229, CCK8, 72 h
# Method: as §1
# [4] = test system: CT-2A-R; test: CCK8 cell proliferation assay, CT-2A-R; type: cell-based; conditions: Mus musculus, CCK8, 72 h
# Method: as §1
# [5] = test system: histones H3 and H4 in U87MGR GBM cells; test: Western blot of histone H3 and H4 acetylation; type: cell-based, human; conditions: 10 μM, within 1 h
# Method: (§2) The experimental procedure was performed as described in our previous study.[41] On the day prior to the experiment, […] cells were seeded into each well of a 6-well plate. The following day, the cells were washed twice with PBS and treated with 10 μM compound 1. The acetylation status of histones H3 and H4, DNA repair, and protein stability assay were assessed at 0–24 h post-treatment. The antibody models and dilution ratios used are detailed in Table S1. Protein image collection and quantification were done by the ChemiDoc Touch Imaging System (Cat. No. 12676029, Bio-Rad Laboratories, Inc., CA, USA).
# [6] = test system: CT-2A mouse astrocyte cell line; test: CCK8 cell proliferation assay, CT-2A; type: cell-based; conditions: CCK8, 72 h
# Method: as §1
# [7] = test system: CT-2A-R astrocytoma cells; test: Orthotopic CT-2A-R tumor model, IVIS; type: in vivo, mouse; conditions: 50 mg/kg orally
# Method: Animals were imaged using an IVIS to monitor tumor growth and target expression changes. Initially, animals were anesthetized with isoflurane prior to imaging to minimize movement artifacts. D-luciferin (150 mg/kg) was then administered via an intraperitoneal injection. After 60 s, animals were positioned on the imaging platform, and images were acquired with a 10-s exposure. Experimental data were collected and quantified for fluorescence or bioluminescence signals by using Living Image software in the IVIS system. After each imaging session, animal ID, imaging parameters, and imaging time were recorded for subsequent analysis.
# For orthotopic inoculation, CT-2A cells (1 × 10^5) or CT-2A-R (2 × 10^5) were suspended in 4 μL of DMEM and implanted into the brain of B6 mice. PT#3-R cells (5 × 10^5) were suspended in 4 μL of DMEM and implanted into the brain of SCID mice. After cell implantation, mice were monitored daily for survival, and their body weight was measured every 3 days starting from the seventh day. The oral vehicle consisted of 40% ethyl oleate, 12% lecithin, 20% propylene glycol, and 28% Triton X-100. Mice were administered 5 μL of vehicle per gram of body weight along with 50 mg/kg TMZ or a combination of TMZ and compound 1. Intraperitoneal injections were administered with DMSO (solvent control), TMZ (10 μg/kg), TMZ (10 μg/kg), and compound 1 (10 or 20 μg/kg). […]
# [8] = test system: phospho-ATM, CtIP, RPA32, and RAD51 in PT#3-R GBM cells; test: Western blot of DNA repair proteins; type: cell-based, human; conditions: 72 h
# Method: as §2, with “The acetylation status of histones H3 and H4, DNA repair, and protein stability assay were assessed at 0–24 h post-treatment.” left out
# [9] = test system: PT#3-R GBM cells; test: Orthotopic PT#3-R transplant model, survival and HE staining; type: in vivo, mouse
# Method: For orthotopic inoculation, CT-2A cells (1 × 10^5) or CT-2A-R (2 × 10^5) were suspended in 4 μL of DMEM and implanted into the brain of B6 mice. PT#3-R cells (5 × 10^5) were suspended in 4 μL of DMEM and implanted into the brain of SCID mice. After cell implantation, mice were monitored daily for survival, and their body weight was measured every 3 days starting from the seventh day. […] […] […] Upon the natural death of the mice, brains were extracted and entrusted to BioTools for sectioning and HE staining.
structure (smiles),measurement,setting,value
"O=C(/C=C/c1ccc(CNC[C@H]2CN(c3ccc(N4CCOCC4)c(F)c3)C(=O)O2)cc1)NO [compound 1, (S,E)-3-(4-((((3-(3-Fluoro-4-morpholinophenyl)-2-oxooxazolidin-5-yl)methyl)ami-no)methyl)phenyl)-N-hydroxyacrylamide]",concentration at 30 min,"[1]; brain, read-out: Brain conc.",831 ng/mL
same,Kp at 0.5 h,"[1]; brain/plasma, 30 min, read-out: brain/plasma (B/P) ratio",1.27
same,concentration at 30 min,"[1]; plasma, read-out: Plasma conc.",656 ng/mL
same,IC50,[2],11.1 ± 0.57 µM
same,IC50,[3],15.7 ± 0.93 µM
same,IC50,[4],8.27 ± 1.39 µM
same,acetylation in histones H3 and H4,[5],significant induction of acetylation
same,IC50,[6],5.88 ± 0.63 µM
same,growth of orthotopic tumors (IVIS),[7],effectively inhibited the growth of orthotopic tumors
same,"CtIP, RPA32 and RAD51 protein expression",[8],significant suppression
same,phosphorylation of ATM,[8],significant increase in the phosphorylation
same,survival (Kaplan-Meier),"[9]; PT#3-R in SCID mice, 10 or 20 mg/kg with 10 mg/kg TMZ, intraperitoneal every 3 days from day 7",extend the survival rate
same,TMZ-resistant GBM cell growth in the brain (HE staining),"[9]; PT#3-R, post-mortem brain tissue sections",effective inhibition of TMZ-resistant GBM cell growth in the brain
